Patent US8835428B2, “Diacylglycerol acyltransferase inhibitors” (Piramal Enterprises Limited, priority 2008, dated 2014)

Molecular target: T1, hDGAT1 (Homo sapiens, UniProt O75907)
T1 construct: host or cells: Sf9 insect cells (baculovirus); microsomal preparation
T1 sequence (O75907 1-488): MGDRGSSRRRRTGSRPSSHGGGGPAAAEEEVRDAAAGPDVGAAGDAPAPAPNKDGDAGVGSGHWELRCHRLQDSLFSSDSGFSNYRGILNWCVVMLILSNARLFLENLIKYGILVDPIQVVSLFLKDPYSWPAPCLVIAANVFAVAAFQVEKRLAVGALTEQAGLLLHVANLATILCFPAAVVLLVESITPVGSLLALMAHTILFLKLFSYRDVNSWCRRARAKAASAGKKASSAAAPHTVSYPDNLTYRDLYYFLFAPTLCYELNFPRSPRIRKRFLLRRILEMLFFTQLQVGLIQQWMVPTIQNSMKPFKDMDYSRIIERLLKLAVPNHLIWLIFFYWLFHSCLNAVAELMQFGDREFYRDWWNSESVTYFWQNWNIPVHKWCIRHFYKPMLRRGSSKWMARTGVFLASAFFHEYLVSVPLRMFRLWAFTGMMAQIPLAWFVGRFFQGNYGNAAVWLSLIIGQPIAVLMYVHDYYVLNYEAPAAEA
Experiment: In-vitro DGAT1 assay (hDGAT1 microsomes from Sf9 cells, 14C oleoyl CoA, triglyceride formation)
Type: biochemical
Details: At 1 μM
How it was run: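 Human DGAT1 in baculovirus-infected Sf9 microsomes (2.5–10 μg), [14C]oleoyl-CoA with 409.5, 1228.5 or 1638 μM 1,2-dioleoyl-sn-glycerol, Tris-HCl pH 7.4 buffer with BSA. Compounds screened at 10, 5 and 1 μM in duplicate. Reaction 10 min at 37 °C; heptane-extracted [14C]triglyceride counted by scintillation.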

Row | % inhibition of hDGAT1 | inhibition at 1 µM | Molecule
1 | + (>0% Inhibition ≦50) | – | C=C(NC(=O)c1cc(-c2ccc(NC(=O)Nc3ccc(C)cc3)cc2)no1)C(=O)OC [Example 303, Methyl 2-(3-(4-(3-p-tolylureido)phenyl)isoxazole-5-carboxamido) acrylate]
2 | – | 75 to 100% | CC(C)C(NC(=O)c1cc(-c2ccc(NC(=O)Nc3ccc(OC(F)(F)F)cc3Cl)cc2)no1)C(=O)O (stereo not shown) [Example 287, 2-(3-(4-(3-(2-chloro-4-(trifluoromethoxy)phenyl)ureido)phenyl)isoxazole-5-carboxamido)-3-methylbutanoic acid]
3 | – | 0 to 50% | COC(=O)[C@H](NC(=O)c1cc(-c2ccc(NS(=O)(=O)c3ccc(C(F)(F)F)cc3)cc2)no1)C(C)C [Example 318, (R)-methyl 3-methyl-2-(3-(4-(4-(trifluoromethyl)phenylsulfonamido)phenyl)isoxazole-5-carboxamido)butanoate]
4 | – | 75 to 100% | CC(C)c1ccc(NC(=O)Nc2ccc(-c3cc(C(=O)N[C@H](C(=O)O)C(C)C)on3)cc2)cc1 [Example 228, (S)-2-(3-(4-(3-(4-Isopropylphenyl)ureido)phenyl)isoxazole-5-carboxamido)-3-methylbutanoic acid]
5 | – | 0 to 50% | CC(C)[C@H](NC(=O)c1csc(-c2ccc(NC(=O)Nc3cccc(C(F)(F)F)c3)cc2)n1)C(=O)O [Example 367, (S)-3-Methyl-2-(2-(4-(3-(3-(trifluoromethyl)phenyl)ureido)phenyl)thiazole-4-carboxamido)butanoic acid]
6 | – | 50 to 75% | COC(=O)[C@@H]1CCCN1C(=O)c1cc(-c2ccc(NC(=O)Nc3ccccc3F)cc2)no1 [Example 261, (S)-Methyl 1-(3-(4-(3-(2-fluorophenyl)ureido)phenyl)isoxazole-5-carbonyl)pyrrolidine-2-carboxylate]
7 | + (>0% Inhibition ≦50) | – | CC(C)C(NC(=O)c1cc(-c2ccc(OCc3ccc(F)cc3F)cc2)no1)C(=O)O (stereo not shown) [Example 332]
8 | – | 0 to 50% | CC(C)C(NC(=O)c1cc(-c2ccc(OCc3cccc(C(F)(F)F)c3)cc2)no1)C(=O)O (stereo not shown) [Example 326, 3-Methyl-2-(3-(4-(3-(trifluoromethyl)benzyloxy)phenyl)isoxazole-5-carboxamido)butanoic acid]
9 | – | 50 to 75% | CC(C)[C@@H](C(=O)O)N(C)C(=O)c1cc(-c2ccc(NC(=O)Nc3ccccc3Cl)cc2)no1 [Example 314, (S)-2-(3-(4-(3-(2-chlorophenyl)ureido)phenyl)-N-methylisoxazole-5-carboxamido)-3-methylbutanoic acid]
10 | – | 0 to 50% | COC(=O)c1ccc(NC(=O)Nc2ccc(-c3cc(C(=O)NC(C(=O)OC)C(C)C)on3)cc2)cc1 (stereo not shown) [Example 283, Methyl 4-(3-(4-(5-(1-methoxy-3-methyl-1-oxobutan-2-ylcarbamoyl)isoxazol-3-yl)phenyl)ureido)benzoate]
11 | – | 75 to 100% | CC(C)[C@H](NC(=O)c1cc(-c2ccc(NC(=O)Nc3ccc(Cl)cc3C(F)(F)F)cc2)no1)C(=O)O [Example 215, (S)-2-(3-(4-(3-(4-chloro-2-(trifluoromethyl)phenyl)ureido)phenyl)isoxazole-5-carboxamido)-3-methylbutanoic acid]
12 | – | 50 to 75% | COC(=O)[C@H](C(C)C)N(C)C(=O)c1cc(-c2ccc(NC(=O)Nc3cccc(C(F)(F)F)c3)cc2)no1 [Example 309, (S)-methyl 3-methyl-2-(N-methyl-3-(4-(3-(3-(trifluoromethyl)phenyl)ureido)phenyl)isoxazole-5-carboxamido)butanoate]

The remaining lines, values behind:

Row | Molecule | % inhibition of hDGAT1 | inhibition at 1 µM
13 | CSc1ccc(NC(=O)Nc2ccc(-c3cc(C(=O)N[C@H](C(=O)O)C(C)C)on3)cc2)cc1 [Example 197, (S)-3-methyl-2-(3-(4-(3-(4-(methylthio)phenyl)ureido)phenyl)isoxazole-5-carboxamido)butanoic acid] | – | 75 to 100%
14 | CC(C)C(NC(=O)c1cc(-c2ccc(NC(=O)Nc3cc(F)cc(F)c3)cc2)no1)C(=O)O (stereo not shown) [Example 160, 2-(3-(4-(3-(3,5-difluorophenyl)ureido)phenyl)isoxazole-5-carboxamido)-3-methylbutanoic acid] | – | 75 to 100%

Same assay, conditions: At 5 μM

Row | inhibition at 5 µM | Molecule
15 | 50 to 75% | CC(C)[C@H](NC(=O)c1nc(-c2ccc(NC(=O)Nc3ccccc3F)cc2)no1)C(=O)O [Example 349, (S)-2-(3-(4-(3-(2-Fluorophenyl)ureido)phenyl)-1,2,4-oxadiazole-5-carboxamido)-3-methylbutanoic acid]
16 | 0 to 50% | COC(=O)[C@@H](NC(=O)c1nc(-c2ccc(NS(=O)(=O)c3ccc(F)cc3F)cc2)no1)C(C)C [Example 350, (S)-methyl 2-(3-(4-(2,4-difluorophenylsulfonamido)phenyl)-1,2,4-oxadiazole-5-carboxamido)-3-methylbutanoate]
17 | 75 to 100% | CC(C)C(NC(=O)c1cc(-c2ccc(NC(=O)Nc3cccc(C(F)(F)F)c3)cc2)no1)C(=O)O (stereo not shown) [Example 278, 3-Methyl-2-(3-(4-(3-(3-(trifluoromethyl)phenyl)ureido)phenyl)isoxazole-5-carboxamido)butanoic acid]
18 | 50 to 75% | Cc1ccc(NC(=O)Nc2ccc(-c3cc(C(=O)NCCCC(=O)O)on3)cc2)cc1 [Example 256, 4-(3-(4-(3-p-Tolylureido)phenyl)isoxazole-5-carboxamido)butanoic acid]

Same assay, conditions: At 10 μM

Row | inhibition at 10 µM | % inhibition of hDGAT1 | Molecule
19 | 75 to 100% | – | COc1ccc(NC(=O)Nc2ccc(-c3cc(C(=O)NC(C(=O)O)C(C)C)on3)cc2)cc1 (stereo not shown) [Example 128, 2-(3-(4-(3-(4-Methoxyphenyl)ureido)phenyl)isoxazole-5-carboxamido)-3-methylbutanoic acid]
20 | 0 to 50% | – | O=C(O)C1(NC(=NO)c2cc(-c3ccc(Nc4nc5ccc(F)cc5s4)cc3)no2)CCCC1 [Example 66, 1-({3-[4-(6-Fluoro-benzothiazol-2-ylamino)-phenyl]-N-hydroxy-isoxazole-5-carboximidoyl}-amino)-cyclopentanecarboxylic acid]
21 | 0 to 50% | – | COC(=O)[C@@H](NC(=S)c1cc(-c2ccc(Nc3nc4ccc(F)cc4s3)cc2)no1)c1ccccc1 [Example 54, (S)-({3-[4-(6-Fluoro-benzothiazol-2-ylamino)-phenyl]-isoxazole-5-carbothioyl}-amino)-phenyl-acetic acid methyl ester]
22 | 75 to 100% | – | CC(C)[C@H](NC(=O)c1cc(-c2ccc(Nc3nc4ccc(F)cc4s3)cc2)no1)C(=O)O [Example 44, (S)-2-({3-[4-(6-Fluoro-benzothiazol-2-ylamino)-phenyl]-isoxazole-5-carbonyl}-amino)-3-methyl-butyric acid]
23 | 50 to 75% | – | COC(=O)C(C)(C)NC(=O)c1cc(-c2ccc(NC(=O)Nc3ccccc3)cc2)no1 [Example 121, Methyl 2-methyl-2-(3-(4-(3-phenylureido)phenyl)isoxazole-5-carboxamido)propanoate]
24 | 0 to 50% | – | CC(C)CC(NC(=O)c1cc(-c2ccc(NC(=O)NCc3ccccc3)cc2)no1)C(=O)O (stereo not shown) [Example 110, 2-(3-(4-(3-Benzylureido)phenyl)isoxazole-5-carboxamido)-4-methyl pentanoic acid]
25 | 0 to 50% | – | CC(C)[C@H](NC(=NO)c1cc(-c2cccc(Nc3nc4ccc(F)cc4s3)c2)no1)C(=O)O [Example 27, (S)-2-({3-[3-(6-Fluoro-benzothiazol-2-ylamino)-phenyl]-N-hydroxy-isoxazole-5-carboximidoyl}-amino)-3-methyl-butyric acid]
26 | 50 to 75% | – | COC(=O)[C@H](NC(=O)c1cc(-c2ccc(Nc3nc4ccc(F)cc4s3)cc2)no1)C(C)C [Example 38, (R)-2-({3-[4-(6-Fluoro-benzothiazol-2-ylamino)-phenyl]-isoxazole-5-carbonyl}-amino)-3-methyl-butyric acid methyl ester]
27 | 75 to 100% | – | Cc1cc(NC(=O)Nc2ccc(F)cc2F)ccc1-c1cc(C(=O)NC(CC(C)C)C(=O)O)on1 (stereo not shown) [Example 140, 2-(3-(4-(3-(2,4-difluorophenyl)ureido)-2-methylphenyl)isoxazole-5-carboxamido)-4-methylpentanoic acid]
28 | 0 to 50% | – | COC(=O)[C@@H](NC(=O)c1onc(-c2ccc(NC(=O)Nc3ccc(F)cc3)cc2)c1-c1ccccc1)C(C)C [Example 92, (S)-2-[(3-{4-[3-(4-Fluoro-phenyl)-ureido]-phenyl}-4-phenyl-isoxazole-5-carbonyl)-amino]-3-methyl-butyric acid methyl ester]
29 | 0 to 50% | – | NC(=S)c1cc(-c2ccc(Nc3nc4ccc(F)cc4s3)cc2)no1 [Example 4, 3-[4-(6-Fluoro-benzothiazol-2-ylamino)-phenyl]-isoxazole-5-carbothioic acid amide]
30 | – | ++ (>50% Inhibition ≦75) | (S)-({3-[4-(6-Fluoro-benzothiazol-2-ylamino)-phenyl]-isoxazole-5-carbothioyl}-amino)-phenyl-acetic acid [Example 55]
31 | 0 to 50% | – | CC(C)[C@H](NC(=S)c1cc(-c2cccc(Nc3nc4ccc(F)cc4s3)c2)no1)C(=O)O [Example 25, (S)-2-({3-[3-(6-Fluoro-benzothiazol-2-ylamino)-phenyl]-isoxazole-5-carbothioyl}-amino)-3-methyl-butyric acid]
